Columns and labels:
cyclin B degradation = cyclin B degradation assay in HeLa cells; type: cell-based; conditions: 30 μL assay volume
Source text: (§1) Biologically active 1,3-dioxanes have been identified in phenotypic assays in cell culture, zebrafish, and Xenopus laevis oocyte extract (FIG. 22).

[1] = tested on: cyclin B degradation pathway; assay: Xenopus laevis oocyte extract assay of cyclin B degradation; conditions: 4 μL assay volume
Source text: as §1

HDAC6 = molecular target: T1, HDAC6 (Homo sapiens, UniProt Q9UBN7); assay: HDAC assay, [3H]acetate-incorporated histones with immunoprecipitated FLAG-tagged HDAC6 (HDAC6F); type: biochemical; design: made in house; host or cells: TAg Jurkat cells, transient transfection, anti-FLAG M2 immunoprecipitation; conditions: calculated IC50, data in duplicate, at least two experiments; read-out: IC50 against HDAC6
T1 sequence (Q9UBN7 1-1215): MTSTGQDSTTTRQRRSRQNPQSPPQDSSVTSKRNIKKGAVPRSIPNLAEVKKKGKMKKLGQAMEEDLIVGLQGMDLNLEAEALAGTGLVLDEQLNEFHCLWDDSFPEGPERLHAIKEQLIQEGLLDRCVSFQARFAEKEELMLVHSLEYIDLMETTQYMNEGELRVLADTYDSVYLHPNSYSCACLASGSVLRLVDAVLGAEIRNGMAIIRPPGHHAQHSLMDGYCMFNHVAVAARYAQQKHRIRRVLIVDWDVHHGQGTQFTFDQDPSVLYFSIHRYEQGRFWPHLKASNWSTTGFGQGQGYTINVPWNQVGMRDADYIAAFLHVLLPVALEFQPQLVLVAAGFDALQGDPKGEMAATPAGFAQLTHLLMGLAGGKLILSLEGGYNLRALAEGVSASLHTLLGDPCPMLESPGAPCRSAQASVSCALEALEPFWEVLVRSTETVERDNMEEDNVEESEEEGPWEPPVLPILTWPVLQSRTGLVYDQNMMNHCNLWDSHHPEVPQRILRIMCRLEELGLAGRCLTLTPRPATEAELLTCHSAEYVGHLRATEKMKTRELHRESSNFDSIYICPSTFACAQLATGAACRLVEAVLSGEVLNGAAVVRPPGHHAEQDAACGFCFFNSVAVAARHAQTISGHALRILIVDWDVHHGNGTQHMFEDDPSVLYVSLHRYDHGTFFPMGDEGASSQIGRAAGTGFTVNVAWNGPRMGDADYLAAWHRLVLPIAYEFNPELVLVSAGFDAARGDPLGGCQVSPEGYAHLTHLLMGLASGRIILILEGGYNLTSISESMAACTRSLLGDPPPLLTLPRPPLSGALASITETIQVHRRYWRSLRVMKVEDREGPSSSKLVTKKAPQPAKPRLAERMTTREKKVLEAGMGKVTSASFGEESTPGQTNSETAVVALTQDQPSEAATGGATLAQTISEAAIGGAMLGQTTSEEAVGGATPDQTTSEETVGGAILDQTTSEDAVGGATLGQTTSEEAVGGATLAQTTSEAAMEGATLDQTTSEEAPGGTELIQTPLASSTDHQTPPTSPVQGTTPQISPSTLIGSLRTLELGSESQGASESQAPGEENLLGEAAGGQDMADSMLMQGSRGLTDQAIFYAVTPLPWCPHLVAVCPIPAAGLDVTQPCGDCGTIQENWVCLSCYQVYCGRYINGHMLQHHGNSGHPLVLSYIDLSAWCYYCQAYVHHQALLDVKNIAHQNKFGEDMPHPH
Experimental: (§2) Cell culture and Transfections. TAg-Jurkat cells were transfected by electroporation with 5 μg of FLAG-epitope-tagged pBJ5 constructs (as described in ref. 5c) for expression of recombinant proteins. Cells were harvested 48 h posttransfection.
HDAC assays. […] Compounds were added in DMSO such that final assay concentrations were 1% DMSO. IC50s were calculated using Prism 3.0 software. Curve fitting was done without constraints using the program's Sigmoidal-Dose Response parameters. All data points were acquired in duplicate and IC50s are calculated from the composite results of at least two separate experiments.
Tubulin and MAPs were isolated from bovine brain as described [See http://mitchison.med.harvard.edu/protocols/tubprep.html]. Whole brain and fractions from phosphocellulose chromatography were blotted for HDAC6 and acetylated α-tubulin. Cultured hippocampal neurons from dissociated 1-day old rat brains were transfected with an enhanced green fluorescent protein (EGFP)-actin construct at 4-5 days using the calcium phosphate method [E. N. Star, D. J. Kwiatkowski and V. N. Murthy, Nat. Neurosci. […] K. Miranti and M. E. Greenberg, J. Neurosci. […] Transfected cultures were allowed to grow for at least 48 h before the addition of experimental compounds.
[^3H]Acetate-incorporated histones were isolated from butyrate-treated HeLa cells as described [J. Taunton, C. […] Immunoprecipitates were incubated with acetylated histones and HDAC activity determined by scintillation counting as described [J. Taunton, C. […] TDAC assays were performed with immunoprecipitates using MAP-stabilized microtubules polymerized from MAP-rich tubulin fraction as described [C. […] Reactions were incubated (2 h) at 37° C., then incubated on ice (15 min).

HDAC1 = molecular target: T2, HDAC1 (Homo sapiens, UniProt Q13547); assay: HDAC assay, [3H]acetate-incorporated histones with immunoprecipitated FLAG-tagged HDAC1; type: biochemical; conditions: calculated IC50, data in duplicate, at least two experiments; read-out: IC50 against HDAC1
T2 construct: made in house; host or cells: TAg-Jurkat cells, transient transfection, then immunoprecipitation
Experimental: as §2
HDAC assays. [^3H]Acetate-incorporated histones were isolated from butyrate-treated HeLa cells by hydroxyapatite chromatography (as described in Tong, et al. Nature 1997, 395, 917-921.) Immunoprecipitates were incubated with 1.4 μg (10,000 dpm) histones for 3 h at 37° C. HDAC activity was determined by scintillation counting of the ethyl acetate-soluble [^3H]acetic acid (as described in Taunton, et al., Science 1996, 272, 408-411). Compounds were added in DMSO such that final assay concentrations were 1% DMSO. IC50s were calculated using Prism 3.0 software. Curve fitting was done without constraints using the program's Sigmoidal-Dose Response parameters. All data points were acquired in duplicate and IC50s are calculated from the composite results of at least two separate experiments.

α-tubulin deacetylation = conditions: cited from earlier work
[2] = tested on: α-tubulin acetylation in the presence of ITSA1; conditions: cited from earlier work
human FKBP12 = human FKBP12 (Homo sapiens, UniProt P62942); assay: small molecule microarray protein-binding assay; conditions: labeled protein
Experimental: In addition to phenotypic assays, over fifty protein-binding assays have been performed with the 1,3-dioxane library using small molecule microarrays (MacBeath et al. J. Am. Chem. Soc. 1999, 121, 7967-7968; Peterson et al. Proc. Natl. Acad. Sci. U.S.A. 2000, 97, 12965-12969). The microarrays were constructed by covalent attachment of […] of each stock solution to a glass slide using a contact printing robot. Labeled proteins were used to probe the microarray for small molecule partners.

T2 sequence (Q13547 whole entry): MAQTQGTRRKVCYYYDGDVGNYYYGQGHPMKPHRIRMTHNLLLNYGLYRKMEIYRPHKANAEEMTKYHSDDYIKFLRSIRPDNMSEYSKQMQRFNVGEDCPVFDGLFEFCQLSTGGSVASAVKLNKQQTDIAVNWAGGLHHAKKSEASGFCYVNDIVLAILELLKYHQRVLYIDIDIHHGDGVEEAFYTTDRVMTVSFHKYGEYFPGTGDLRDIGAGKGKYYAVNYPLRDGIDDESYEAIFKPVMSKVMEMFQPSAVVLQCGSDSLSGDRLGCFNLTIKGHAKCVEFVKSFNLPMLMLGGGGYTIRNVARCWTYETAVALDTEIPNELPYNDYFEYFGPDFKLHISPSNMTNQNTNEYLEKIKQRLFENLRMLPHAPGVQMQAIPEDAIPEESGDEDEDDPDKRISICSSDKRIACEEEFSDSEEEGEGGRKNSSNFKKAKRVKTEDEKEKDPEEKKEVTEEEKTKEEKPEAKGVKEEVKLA
Sequence of human FKBP12 (P62942 whole entry): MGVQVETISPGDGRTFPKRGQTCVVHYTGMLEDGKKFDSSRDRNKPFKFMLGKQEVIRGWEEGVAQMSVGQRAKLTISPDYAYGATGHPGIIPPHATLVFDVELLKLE

Compound: C[C@H]1[C@@H](CN2CCC3(CC2)OCCO3)OC(c2cccc(NS(=O)(=O)c3ccccc3)c2)O[C@H]1c1ccc(CO)cc1 (mixture of isomers) [compound 10, (±)-N-[3-[(4S,5R,6R)-4-(1,4-dioxa-8-azaspiro[4.5]dec-8-ylmethyl)-6-[4-(hydroxymethyl)phenyl]-5-methyl-1,3-dioxan-2-yl]phenyl-benzenesulfonamide]
- activity in HeLa cell cyclin B degradation assay (cyclin B degradation): inhibitory activity
- activity in Xenopus laevis oocyte extract cyclin B degradation assay [1]: Neither set of compounds was active in both assay systems
- IC50 (HDAC6): ~1000 nM
- IC50 (HDAC1): ~1000 nM

Compound: CC(=O)O[C@H]1C(=O)[C@@]2(C)[C@H]([C@H](OC(=O)c3ccccc3)[C@]3(O)C[C@H](OC(=O)[C@H](O)[C@@H](NC(=O)c4ccccc4)c4ccccc4)C(C)=C1C3(C)C)[C@]1(OC(C)=O)CO[C@@H]1C[C@@H]2O [taxol, Paclitaxel]
- effect on α-tubulin acetylation, stated as known (α-tubulin deacetylation): increases α-tubulin acetylation due to direct stabilization of microtubules
- suppression by ITSA1, stated as known [2]: is not suppressed by ITSA1

Compound: (αS)-2-acetyloxy)-N-[[4-[(4R,5S,6S)-4-[4-(hydroxymethyl)phenyl]-6-[[4,5-d]phenyl-2-oxazolyl)thio]methyl]61,3-dioxan-2-yl]phenyl]methyl-propionamide [compound 14]
- binding to human FKBP12 on small molecule microarray (human FKBP12): bind to human FKBP12

From patent publication US8178579B2, “Dioxanes and uses thereof” (President and Fellows of Harvard College, priority 2001, dated 2012)
